Several values for one entry are separate records, joined by “and”; a condition that tells them apart may be missing. Equal entries are not always repeated.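 All cell lines were grown in 96-well plates and treated with compound for 48 hours. Abbreviation: GI50, concentration required for 50% inhibition of growth. TGI: total growth inhibition.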
Key:
Experiment in all cases: inhibition of tumour cell growth, NCI panel, 48 h
T-47D breast = test system: T-47D breast
NCI/ADR-RES ovarian = test system: NCI/ADR-RES ovarian
NCI-H23 lung = test system: NCI-H23 lung
OVCAR-4 ovarian = test system: OVCAR-4 ovarian
MOLT-4 leukemia = test system: MOLT-4 leukemia
U251 CNS = test system: U251 CNS
SN12C renal = test system: SN12C renal
DU-145 prostate = test system: DU-145 prostate
SR leukemia = test system: SR leukemia
MCF7 breast = test system: MCF7 breast

Compound | GI50 (T-47D breast) | TGI (T-47D breast) | GI50 (NCI/ADR-RES ovarian) | TGI (NCI/ADR-RES ovarian) | GI50 (NCI-H23 lung) | TGI (NCI-H23 lung) | GI50 (OVCAR-4 ovarian) | TGI (OVCAR-4 ovarian) | GI50 (MOLT-4 leukemia) | TGI (MOLT-4 leukemia) | GI50 (U251 CNS) | TGI (U251 CNS) | GI50 (SN12C renal) | TGI (SN12C renal) | GI50 (DU-145 prostate) [µM] | TGI (DU-145 prostate) | GI50 (SR leukemia) | TGI (SR leukemia) | GI50 (MCF7 breast) | TGI (MCF7 breast)
O=C(O)/C=C/c1ccc[c]([Sb](=[O])([OH])[OH])c1 | > 100 µM | > 100 µM | > 100 µM | > 100 µM | > 100 µM | > 100 µM | > 100 µM | > 100 µM | > 100 µM | > 100 µM | > 100 µM | > 100 µM | > 100 µM | > 100 µM | > 100 | > 100 µM | > 100 µM | > 100 µM |  | 
COC1=CC(=O)C2C(C1=O)[C@@H]1c3ccccc3OC(C)(C)[C@H]21 (stereo partly drawn) |  |  |  |  |  | 36.9 µM |  | 32.4 µM |  | 41.2 µM |  | > 100 µM |  |  |  |  |  |  |  | 
COc1cccc2c1C(=O)c1c(O)c3c(c(O)c1C2=O)C[C@@](O)(C(C)=O)C[C@@H]3OC1CC([N+]([O-])(Cc2ccccc2)Cc2ccccc2)C(O)C(C)O1 (stereo partly drawn) |  |  |  |  |  | 2.58 µM |  | 4.17 µM |  |  |  | 2.48 µM |  | 2.34 µM |  |  |  |  |  | 
CC(C)(CN1CCOCC1)C(=O)/C=C/c1ccc(/C=C/C(=O)C(C)(C)CN2CCOCC2)cc1 |  |  |  |  |  |  |  | 2.4 µM |  | 0.694 µM |  | 2.63 µM |  | 3.57 µM |  |  |  |  |  | 
COc1cc(OC)cc(-c2nc3sccn3c2/C=N/N=C(N)N)c1 | 7.23 µM | 17.6 µM | 26.4 µM | > 50 µM | 7.9 µM | 15.6 µM |  |  | 10.9 µM | 18.6 µM | 5.2 µM | 11.1 µM | 7 µM | 13.6 µM |  |  | 8.64 µM | 16.1 µM | 9.41 µM | 20.1 µM
O=c1cc(-c2ccccc2)oc2ccc(OC/C(=N/O)c3ccc(F)cc3)cc12 |  |  | 2.97 µM | 12.8 µM | 5.43 µM | 38.4 µM | 25.3 µM | > 50 µM | 3.54 µM | > 50 µM | 3.03 µM | 43.7 µM | 6.59 µM | 14.5 µM | 3.1 | 15.6 µM | 2.09 µM | > 50 µM |  | 
S=c1nc(C(c2ccccc2)c2ccccc2)[nH][nH]1 |  |  |  |  |  | > 100 µM |  |  |  | > 100 µM |  | > 100 µM |  | > 100 µM |  |  |  |  |  | 
Cn1cnc([N+](=O)[O-])c1Sc1nnnn1C |  |  |  |  |  | 34.7 µM |  | 30.8 µM |  | 33.7 µM |  | 34.1 µM |  | 32.1 µM |  |  |  | 28.2 µM |  | 
CCC[CH2][Sn]([CH2]CCC)([CH2]CCC)[O]C(=O)C(OC(C)=O)c1ccccc1 (stereo not drawn) |  |  |  |  | 0.131 µM | 0.262 µM | 0.103 µM | 0.221 µM | 0.0539 µM | 0.42 µM | 0.14 µM | 0.27 µM | 0.144 µM | 0.275 µM |  |  |  |  |  | 
CCN1C(=O)N(CC)C2C1NN=c1s/c(=C\c3cccs3)c(=O)n12 (stereo not drawn) |  |  | 0.0831 µM | > 100 µM | 0.375 µM | > 100 µM | 1.82 µM | > 100 µM | 0.396 µM | > 100 µM | 0.245 µM | > 100 µM | 0.555 µM | > 100 µM | 0.281 | > 29.9 µM | 0.0576 µM | > 100 µM | 0.0496 µM | > 100 µM
COc1cccc(Sc2ccc([N+](=O)[O-])c3no[n+]([O-])c23)c1 | 3.36 µM | 14.4 µM | 5.97 µM | 19.1 µM | 7.14 µM | 25 µM | 10.1 µM | 27 µM | 4.27 µM | 16.5 µM | 13.1 µM | 30.3 µM | 16.9 µM | 46.8 µM | 11.3 | 24.4 µM |  |  | 4.87 µM | 20.6 µM
CC(N)Cc1ccc(Cl)cc1 (stereo not drawn) |  |  |  |  |  | > 100 µM |  | > 100 µM |  | > 100 µM |  | > 100 µM |  | > 100 µM |  |  |  | > 100 µM |  | 
O=c1/c(=C/c2c(O)ccc3ccccc23)sc2nc3ccccc3n12 |  |  |  |  |  | > 100 µM |  | > 100 µM |  |  |  | > 100 µM |  | > 100 µM |  |  |  |  |  | 
COC1CC(C)C(OC)c2cc(O)cc(c2O)NC(=O)/C(C)=C/C=C\C(C)C(OC(N)=O)/C(C)=C\C(C)C1OC (stereo not drawn) | 0.446 µM | 18.6 µM and 12.9 µM |  |  | 0.169 µM and 0.179 µM | 5.59 µM and 4.37 µM | 2.51 µM | 7.87 µM and 10.1 µM | 0.0437 µM and 0.0746 µM |  | 0.614 µM | 16.1 µM and 23.6 µM |  | 15.1 µM and 8.7 µM | 1.59 | 22.4 µM and 8.94 µM | 0.191 µM and 0.11 µM | 2 µM and 6.31 µM | 0.0482 µM | 10.5 µM
COc1cc(O)c(C(=O)CC(C)=O)c(OC)c1 |  |  |  |  |  | > 100 µM |  | > 100 µM |  | > 100 µM |  | > 100 µM |  | > 100 µM |  |  |  |  |  | 
COc1ccc2c3c(c(C(=O)O)oc13)CCC2 |  |  |  |  |  | > 100 µM |  | > 100 µM |  | > 100 µM |  | > 100 µM |  | > 100 µM |  |  |  | > 100 µM |  | 
NCCOCn1cc(Cc2cccc(OCc3ccccc3)c2)c(=O)[nH]c1=O |  |  |  |  |  | > 100 µM |  | > 100 µM |  | > 100 µM |  | > 100 µM |  | > 100 µM |  |  |  |  |  | 
Cc1ccc(NC(=O)C(=O)C(C(=O)c2ccc3ccccc3c2)C2OC(=O)c3ccccc32)c(C)c1 (stereo not drawn) |  |  |  |  |  | 37.2 µM |  | 25.6 µM |  | 23.7 µM |  | 17.2 µM |  | 53.4 µM |  |  |  |  |  | 
O=C1OC(c2ccccc2)(c2ccccc2)c2ccc3ccc(F)cc3c21 |  |  |  |  |  | > 100 µM |  | > 100 µM |  | > 100 µM |  | > 100 µM |  | > 100 µM |  |  |  | > 100 µM |  | 
CSC(=Nc1ccccc1Cl)NC(=O)c1ccc(Br)cc1 |  |  |  |  |  | > 100 µM |  | 38.4 µM |  | 54.9 µM |  | > 100 µM |  | > 100 µM |  |  |  | > 100 µM |  | 
O=C1C=C2C=CC3CC2(O1)C1CCCCN31 (stereo not drawn) | 22.3 µM and 14.1 µM and 53.4 µM | 71.6 µM and 36.2 µM and > 100 µM | 21.3 µM and 16.8 µM and 35.4 µM | 61.2 µM and 43.4 µM and > 100 µM | 19.9 µM and 15 µM and 31.7 µM | 56.7 µM and 43.5 µM and > 100 µM | 25.8 µM and 22.5 µM and 65 µM | > 100 µM and 92.1 µM |  | 72.6 µM and 56.1 µM and > 100 µM | 20 µM and 27.7 µM and 60.9 µM | 62 µM and 88.8 µM and > 100 µM | 11.8 µM and 14.8 µM and 25 µM | 31.4 µM and 33.7 µM and 74.4 µM |  | 50.1 µM and 36.1 µM and > 100 µM |  |  | 15.3 µM and 16.8 µM and 32.6 µM | 70.4 µM and 39.5 µM and > 100 µM
O=C(N/C(=C\c1c(O)ccc2ccccc12)c1nc2ccccc2[nH]1)c1ccccc1 |  |  |  |  |  | > 100 µM |  | > 100 µM |  | > 100 µM |  | > 100 µM |  | > 100 µM |  |  |  |  |  | 

Source: PubChem BioAssay (NCI)
